Data on 13 molecules can be found in patent US12448399B2, “Cereblon-based KRAS degrading PROTACs and uses related thereto” (Arvinas Operations, Inc., priority 2023, dated 2025).

Bounds are passed on as bounds.

The assay has as its target T1, KRas-G12D (Homo sapiens, UniProt P01116, G12D).
T1 construct: insert the HiBiT tag onto the N-terminus of one or more of the endogenous KRas alleles; host or cells: AsPC-1 HiBiT-KRasG12D knock-in clone (one tagged allele, two untagged KRasG12D alleles)
The assay is described as follows: HiBiT Degradation Assay (G12D), AsPC-1 HiBiT-KRasG12D cells, 24 hr. Particulars: for Dmax: ASPC1, AsPC-1 cells, maximum degradation observed; for DC50: AsPC-1 cells. The class given is cell-based. The method in brief: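 Degradation was read after 24 hr compound exposure (0.5% DMSO, 37° C) by Nano-Glo HiBiT lytic luminescence in AsPC-1 cells carrying a HiBiT tag on one of three KRasG12D alleles. Signal relative to DMSO gave DC50 and Dmax by 4-parameter fit; alamar blue fluorescence monitored cytotoxicity.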
A general note: The HiBiT peptide binds its large partner to form an active luciferase.

T1 sequence (P01116 1-188 isoform P01116-2 G12D): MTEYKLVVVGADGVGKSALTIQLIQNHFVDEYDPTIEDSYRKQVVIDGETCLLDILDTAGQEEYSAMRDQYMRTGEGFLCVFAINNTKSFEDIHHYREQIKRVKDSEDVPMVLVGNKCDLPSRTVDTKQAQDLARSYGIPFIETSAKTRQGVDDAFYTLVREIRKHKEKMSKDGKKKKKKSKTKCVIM

As a reminder, the Dmax is the largest share of the target that was removed. The DC50 is the concentration at which degradation of the target reaches its halfway point. `C#Cc1c(F)ccc2cc(O)cc(-c3ncc4c(N5CC6CCC(C5)N6)nc(OCC5(CN6CCC(CC7CCN(c8ccc9c(c8)n(C)c(=O)n9C8CCC(=O)NC8=O)CC7)CC6)CC5)nc4c3F)c12` (stereo not shown) [Compound 210, 3-{5-[4-({1-[(1-{[(4-{3,8-diazabicyclo[3.2.1]octan-3-yl}-7-(8-ethynyl-7-fluoro-3-hydroxynaphthalen-1-yl)-8-fluoropyrido[4,3-d]pyrimidin-2-yl)oxy]methyl}cyclopropyl)methyl]piperidin-4-yl}methyl)piperidin-1-yl]-3-methyl-2-oxo-2,3-dihydro-1H-1,3-benzodiazol-1-yl}piperidine-2,6-dione] yielded a Dmax of over 70% and a DC50 of under 5.1 µM. On to `C#Cc1c(F)ccc2cccc(-c3ncc4c(N5CC6CCC(C5)N6)nc(OC[C@@H]5C[C@@H](OC6CCN(CC7CCN(c8ccc9c(c8)CN(C8CCC(=O)NC8=O)C9=O)CC7)CC6)CN5C)nc4c3F)c12` (stereo partly shown) [Compound 144], for which the DC50 was under 5.1 µM.

The molecule `C#Cc1c(F)ccc2cc(O)cc(-c3ncc4c(N5CC6CCC(C5)N6)nc(OCCN5CCC(CC6CCN(CC7CCN(c8ccc9c(c8)CN([C@@H]8CCC(=O)NC8=O)C9=O)CC7)CC6)CC5)nc4c3F)c12` [Compound 216, (3R)-3-{5-[4-({4-[(1-{2-[(4-{3,8-diazabicyclo[3.2.1]octan-3-yl}-7-(8-ethynyl-7-fluoro-3-hydroxynaphthalen-1-yl)-8-fluoropyrido[4,3-d]pyrimidin-2-yl)oxy]ethyl}piperidin-4-yl)methyl]piperidin-1-yl}methyl)piperidin-1-yl]-1-oxo-2,3-dihydro-1H-isoindol-2-yl}piperidine-2,6-dione] came in with a Dmax of over 70% and a 50% degradation concentration (DC50) of under 5.1 µM. In turn, `C#Cc1c(F)ccc2cc(O)cc(-c3ncc4c(N5CC6CCC(C5)N6)nc(OCCN5CCC(CC6CCN(CC7CCN(c8ccc9c(c8)C(=O)N(C8CCC(=O)NC8=O)C9)CC7)CC6)CC5)nc4c3F)c12` (stereo not shown) [Compound 110, 3-{6-[4-({4-[(1-{2-[(4-{3,8-diazabicyclo[3.2.1]octan-3-yl}-7-(8-ethynyl-7-fluoro-3-hydroxynaphthalen-1-yl)-8-fluoropyrido[4,3-d]pyrimidin-2-yl)oxy]ethyl}piperidin-4-yl)methyl]piperidin-1-yl}methyl)piperidin-1-yl]-1-oxo-2,3-dihydro-1H-isoindol-2-yl}piperidine-2,6-dione] showed a Dmax of over 70% and a DC50 of under 5.1 µM.

For `C#Cc1c(F)ccc2cc(O)cc(-c3ncc4c(N5CC6CCC(C5)N6)nc(OCCN5CCC(OC6CCN(CC7CCN(c8ccc9c(c8F)CN(C8CCC(=O)NC8=O)C9=O)CC7)CC6)CC5)nc4c3F)c12` (stereo not shown) [Compound 106, 3-{5-[4-({4-[(1-{2-[(4-{3,8-diazabicyclo[3.2.1]octan-3-yl}-7-(8-ethynyl-7-fluoro-3-hydroxynaphthalen-1-yl)-8-fluoropyrido[4,3-d]pyrimidin-2-yl)oxy]ethyl}piperidin-4-yl)oxy]piperidin-1-yl}methyl)piperidin-1-yl]-4-fluoro-1-oxo-2,3-dihydro-1H-isoindol-2-yl}piperidine-2,6-dione], the Dmax was over 70% and the DC50 was under 5.1 µM.

`C#Cc1c(F)ccc2cc(O)cc(-c3ncc4c(N5CC6CCC(C5)N6)nc(OC[C@@H]5C[C@@H](OC6CCN(c7ccc8c(c7F)CN(C7CCC(=O)NC7=O)C8=O)CC6)CN5C)nc4c3F)c12` (stereo partly drawn) [Compound 103, 3-[5-(4-{[(3R,5S)-5-{[(4-{3,8-diazabicyclo[3.2.1]octan-3-yl}-7-(8-ethynyl-7-fluoro-3-hydroxynaphthalen-1-yl)-8-fluoropyrido[4,3-d]pyrimidin-2-yl)oxy]methyl}-1-methylpyrrolidin-3-yl]oxy}piperidin-1-yl)-4-fluoro-1-oxo-2,3-dihydro-1H-isoindol-2-yl]piperidine-2,6-dione]: the greatest degradation seen (Dmax) was over 70% and the DC50 was under 5.1 µM. `C#Cc1c(F)ccc2cc(O)cc(-c3ncc4c(N5CC6CCC(C5)N6)nc(OCCN5CCC6(CC5)CCN(CC5CCN(c7ccc8c(c7F)n(C(C)C)c(=O)n8C7CCC(=O)NC7=O)CC5)CC6)nc4c3F)c12` (stereo not shown) [Compound 203, 3-[5-[4-[[9-[2-[4-(3,8-diazabicyclo[3.2.1]octan-3-yl)-7-(8-ethynyl-7-fluoro-3-hydroxy-1-naphthyl)-8-fluoro-pyrido[4,3-d]pyrimidin-2-yl]oxyethyl]-3,9-diazaspiro[5.5]undecan-3-yl]methyl]-1-piperidyl]-4-fluoro-3-isopropyl-2-oxo-benzimidazol-1-yl]piperidine-2,6-dione]: the Dmax is over 70% and the DC50 was under 5.1 µM. Taken in the same sequence, the figures for `CCc1cccc2cc(O)cc(-c3ncc4c(N5CC6CCC(C5)N6)nc(OC[C@@H]5C[C@@H](OC6CCN(c7ccc8c(c7)CN(C7CCC(=O)NC7=O)C8=O)CC6)CN5C)nc4c3F)c12` (stereo partly shown) [Compound 77] were over 70% and under 5.1 µM. `CCc1cccc2cc(O)cc(-c3ncc4c(N5CC6CCC(C5)N6)nc(OCCN5CCN(c6ccc(C(=O)NC7CCC(=O)NC7=O)c(F)c6)CC5)nc4c3F)c12` (stereo not shown) [Compound 37]: the DC50 is over 1 µM.

For the molecule `CCc1cccc2cc(O)cc(-c3ncc4c(N5CC6CCC(C5)N6)nc(OCCN5CCN(c6cc(OC)c7c(c6)C(=O)N(C6CCC(=O)NC6=O)C7=O)CC5)nc4c3F)c12` (stereo not shown) [Compound 7], the DC50 was over 1 µM.

The molecule `C#Cc1c(F)ccc2cc(O)cc(-c3ncc4c(N5CC6CCC(C5)N6)nc(OCCN5CCC6(CC5)CCN(CC5(F)CCN(c7ccc8c(c7F)CN(C7CCC(=O)NC7=O)C8=O)CC5)CC6)nc4c3F)c12` (stereo not shown) [Compound 120, 3-(5-{4-[(9-{2-[(4-{3,8-diazabicyclo[3.2.1]octan-3-yl}-7-(8-ethynyl-7-fluoro-3-hydroxynaphthalen-1-yl)-8-fluoropyrido[4,3-d]pyrimidin-2-yl)oxy]ethyl}-3,9-diazaspiro[5.5]undecan-3-yl)methyl]-4-fluoropiperidin-1-yl}-4-fluoro-1-oxo-2,3-dihydro-1H-isoindol-2-yl)piperidine-2,6-dione] returned a Dmax of over 70% and a 50% degradation concentration (DC50) of under 5.1 µM. With `CCc1c(F)ccc2cc(O)cc(-c3ncc4c(N5CC6CCC(C5)N6)nc(OCCN5CCC(CC6CCN(CC7CCN(c8ccc9c(c8)n(C)c(=O)n9C8CCC(=O)NC8=O)CC7)CC6)CC5)nc4c3F)c12` (stereo not shown) [Compound 205, 3-{5-[4-({4-[(1-{2-[(4-{3,8-diazabicyclo[3.2.1]octan-3-yl}-7-(8-ethyl-7-fluoro-3-hydroxynaphthalen-1-yl)-8-fluoropyrido[4,3-d]pyrimidin-2-yl)oxy]ethyl}piperidin-4-yl)methyl]piperidin-1-yl}methyl)piperidin-1-yl]-3-methyl-2-oxo-2,3-dihydro-1H-1,3-benzodiazol-1-yl}piperidine-2,6-dione], the Dmax was over 70% and the DC50 was under 5.1 µM.

In turn, `CCc1cccc2cc(O)cc(-c3ncc4c(N5CC6CCC(C5)N6)nc(OC[C@]56CCCN5[C@@H](COC(=O)N5CCN(c7ccc8c(c7)CN(C7CCC(=O)NC7=O)C8=O)CC5)CC6)nc4c3F)c12` (stereo partly drawn) [Compound 59, [(3R,8R)-8-[[4-(3,8-diazabicyclo[3.2.1]octan-3-yl)-7-(8-ethyl-3-hydroxy-1-naphthyl)-8-fluoro-pyrido[4,3-d]pyrimidin-2-yl]oxymethyl]-1,2,3,5,6,7-hexahydropyrrolizin-3-yl]methyl 4-[2-(2,6-dioxo-3-piperidyl)-1-oxo-isoindolin-5-yl]piperazine-1-carboxylate] returned a DC50 of under 5.1 µM.
